What was measured:
[1] = Time required for being reduced to the leuco form by sodium vanadite; type: physicochemical; settings: 38° C., nitrogen, sodium vanadite 0.02 mol/l, anthraquinonesulfonate 0.04 mol/l, NaOH 0.04 mol/l
Method: (§1) Easiness in oxidation-reduction of these compounds is evaluated by their standard oxidation-reduction potential and their oxidation and reduction rates.

[2] = Time required for oxidation by air to regenerate the quinone form; type: physicochemical; settings: 38° C., leucoanthraquinonesulfonate 0.04 mol/l, NaOH 0.08 mol/l
Method: as §1
**Air was absorbed at 38° C. in an aqueous solution containing a
given leucoanthraquinonesulfonate (0.04 mol/l) and sodium hydroxide (0.08
mol/l) under agitation whereby the time required for finishing the
airabsorption was measured.

[3] = Standard oxidation-reduction potential Eo; type: physicochemical; settings: for Standard oxidation-reduction potential Eo: 25° C.; for oxidation-reduction characteristics compared with anthraquinone-2,7-disulfonate (in words): from Table 2 (reaction rates and Eo)
Method: as §1

[4] = Test for absorbing hydrogen sulfide according to the Stretford process (wet desulfurization)
Text: In view of the solubility and oxidation-reduction characteristics above described, the anthraquinone compounds of the general formulas (I) and (II) are expected to exert an equivalent performance to anthraquinone-2,7-disulfonate as an oxidation-reduction reagent used for the Stretford process. […] The results of the test are given in Examples 11-17. The compounds of the general formulas (I) and (II) exerted in the Stretford process an equivalent desulfurization performance to anthraquinone-2,7-disulfonates. In other words, these anthraquinone compounds are quite equivalent to or somewhat better than anthraquinone-2,7-disulfonate in elimination rate of hydrogen sulfide (desulfurization ratio), a conversion rate of the absorbed hydrogen sulfide to elemental sulfur and a concentration of the residual hydrogen sulfide in the refined gas.
(§2) An absorption column was prepared by charging a glass tube (with a jacket) of 10 cm in inner diameter and 100 cm in length with a basket type filler of polypropylene (Tellerette S available from Nittetsu Kakoki KK, Japan) with a diameter of 1 cm up to a height of 95 cm. A hydrogen sulfide-containing gas prepared by mixing a gas composed of 6% carbon dioxide and 94% nitrogen with hydrogen sulfide in an amount of 5 g/Nm^2 was introduced at a flow rate of 230 l/hr. into the absorption column from the bottom thereof. On the other hand, an alkaline aqueous solution containing 0.03 mol/l of sodium metavanadate and 0.005 mol/l of sodium 2-carboxyanthraquinonemonosulfonate, which had been adjusted to have a pH value of 9 by addition of sodium carbonate and was kept at 40° C. was sprayed at a rate of 4.6 l/hr. into the absorption column from the top thereof whereby the hydrogen sulfide-containing gas was brought in the column into contact with the alkaline aqueous solution.
A gas/liquid ratio in this case was 0.02. From the lower part of the absorption column, the liquid was discharged and conveyed into a regeneration column made of a glass tube (with a jacket) of 10 cm in inner diameter and 100 cm in length where elementary sulfur was completely precipitated from the liquid by blowing air thereinto. A residence time of the liquid in the regeneration column was 20 minutes.
as §2, with “lenght” for “length”, “S)” for “S available from Nittetsu Kakoki KK, Japan)”, “g/Nm^3” for “g/Nm^2”, “2-phenoxyanthraquinonetrisulfonate,” for “2-carboxyanthraquinonemonosulfonate,”, “solution. A gas/liquid ratio in this case was 0.02. From the lower part of the absorption column, the liquid was discharged and conveyed into a regeneration column made of a glass tube (with a jacket) of 10 cm in inner diameter and 100 cm in length where elementary sulfur was completely precipitated from the liquid by blowing air thereinto. A residence time of the liquid in the regeneration column was 20 minutes.” for “solution.”
An absorption column was prepared by charging a glass tube (with a jacket) of 10 cm in inner diameter and 100 cm in length with a basket type filler of polypropylene (Tellerett S) with a diameter of 1 cm up to a height of 95 cm. […]

[5] = Solubility (g/l, 25° C.) in alkaline inorganic salt solutions and water; settings: for Solubility: 25° C.
[6] = pH of solution in pure water; type: physicochemical
[7] = basic aqueous solution used in the Stretford process; background statement; cited from earlier work
[8] = Examples 13-15: 0.005 mol/l reagent, 0.03 mol/l sodium metavanadate, pH 9, 40° C., H2S gas 5 g/Nm^3, 230 l/hr
[9] = 20g Na2 CO3 + 300g Na2 S2 O3 in 1 liter of water
[10] = 20g Na2 CO3 + 300g NaSCN in 1 liter of water
[11] = Mixed aqueous solution: 20 g/l sodium carbonate, 50 g/l sodium sulfate, 100 g/l sodium thiosulfate, 150 g/l sodium thiocyanate
[12] = Examples 11-12: 0.005 mol/l reagent, 0.03 mol/l sodium metavanadate, pH 9, 40° C., H2S gas 230 l/hr, liquid 4.6 l/hr
[13] = Example 17: same manner as described in Example 13 (so in the source)
[14] = practical use, Stretford process

| Compound | Time required for reduction to the leuco form [1] | Time required for oxidation to regenerate the quinone form [2] | Standard oxidation-reduction potential Eo [3] | desulfurization ratio [4, 8] | Solubility [5, 9] | Solubility [5, 10] | Solubility [5, 11] | Solubility ([5]; Water) | desulfurization ratio [4, 12] | also measured |
| --- | --- | --- | --- | --- | --- | --- | --- | --- | --- | --- |
| Sodium 2-phenoxyanthraquinonetetrasulfonate | 5 min | 15 min | 0.28 V | at least 99.7% | > 300 mg/mL | > 200 mg/mL | > 200 mg/mL | > 600 mg/mL | – | oxidation-reduction characteristics compared with anthraquinone-2,7-disulfonate (in words) [3]: very similar in oxidation-reduction characteristics to sodium anthraquinone-2,7-disulfonate |
| ammonium 2-phenoxyanthraquinonetetrasulfonate | – | – | – | at least 99.7% | – | – | – | – | – | – |
| sodium 2-carboxyanthraquinonemonosulfonate | 5 min | 15 min | 0.29 V | – | 38 mg/mL | 25 mg/mL | 15 mg/mL | 12 mg/mL | ≥ 99.7% | oxidation-reduction characteristics compared with anthraquinone-2,7-disulfonate (in words) [3]: very similar in oxidation-reduction characteristics to sodium anthraquinone-2,7-disulfonate; quantity of sulfur recovered, % of hydrogen sulfide contained in the feed gas ([4]; Example 11: 0.005 mol/l reagent, 0.03 mol/l sodium metavanadate, pH 9, 40° C.): 97%; pH of the solution [6]: 3-4; solubility as disodium salt ([5]; neutral or weakly alkaline solution, as disodium salt): ≥ 200 mg/mL |
| O=C1c2ccc(S(=O)(=O)[O-])cc2C(=O)c2ccc(S(=O)(=O)[O-])cc21.[Na+].[Na+] [reference compound] | – | – | – | – | < 1 mg/mL | < 1 mg/mL | < 1 mg/mL | 39 mg/mL | – | – |
| potassium 2-phenoxyanthraquinonetrisulfonate | – | – | – | at least 99.7% | – | – | – | – | – | – |
| potassium 2-carboxyanthraquinonemonosulfonate | – | – | – | – | – | – | – | – | at least 99.7% | – |
| potassium 2-phenoxyanthraquinonetetrasulfonate | – | – | – | at least 99.7% | – | – | – | – | – | – |
| O=C1c2ccc(S(=O)(=O)O)cc2C(=O)c2ccc(S(=O)(=O)O)cc21 [anthraquinone-2,6-disulfonic acid] | – | – | – | – | – | – | – | – | – | solubility (in words) [7]: very poor solubility |
| ammonium 2-carboxyanthraquinonemonosulfonate | – | – | – | – | – | – | – | – | at least 99.7% | – |
| O=C1c2ccc(S(=O)(=O)[O-])cc2C(=O)c2cc(S(=O)(=O)[O-])ccc21.[Na+].[Na+] [reference compound] | 5 min | 15 min | 0.29 V | – | 10 mg/mL | 8 mg/mL | 5 mg/mL | 305 mg/mL | 99.6% | – |
| sodium 2-carboxyanthraquinonetetrasulfonate | – | – | – | – | – | – | – | – | – | desulfurization ratio [4, 13]: at least 99.7% |
| O=C1c2ccccc2C(=O)c2cc(Oc3ccc(S(=O)(=O)O)cc3S(=O)(=O)O)ccc21 [sodium 2-phenoxyanthraquinone-2',4'-disulfonate, reference compound] | – | – | – | – | – | – | – | – | – | standard oxidation-reduction potential ([3]; temperature not given): 0.21 V; suitability for use in the Stretford process (in words) ([4]; Stretford process): unsuited for use in the Stretford process; capturing rate for hydrogen sulfide (in words) [4, 14]: inferior; oxidation efficiency of hydrogen sulfide to elemental sulfur (in words) [4, 14]: inferior |
| sodium 2-phenoxyanthraquinonetrisulfonate | 5 min | 15 min | 0.27 V | ≥ 99.7% | > 200 mg/mL | > 100 mg/mL | > 100 mg/mL | > 400 mg/mL | – | oxidation-reduction characteristics compared with anthraquinone-2,7-disulfonate (in words) [3]: very similar in oxidation-reduction characteristics to sodium anthraquinone-2,7-disulfonate; quantity of sulfur recovered, % of hydrogen sulfide contained in the feed gas ([4]; Example 13: 0.005 mol/l reagent, 0.03 mol/l sodium metavanadate, pH 9, 40° C.): 97%; desulfurization ratio [4, 13]: at least 99.7% |
